Experiments:
P14 CD8 T cells = experiment: in-vitro co-culture of P14 CD8 T cells with CT2A-gp33 tumor cells (Example 1); format: cell-based, mouse
Text: To study their epigenetic (re)programming, we developed a novel in-vitro model of CD8 T cell exhaustion. First, we optimized conditions for in-vitro co-culture of gp33-expressing murine brain tumor cells (CT2A-gp33) and TCR transgenic gp33-specific CD8 T cells (P14 cells). We were able to enforce differentiation of anti-tumor CD8 T cells under their persistent TCR stimulation by repeated exposure to the tumor antigen and tumor-derived factors, such as TGFβ1. […] However, with prolonged exposure to the tumor antigen, the effector CD8 T cells progressively lose cytokine production and tumor killing activity (FIGS. 8A, 8B, and 8C).
To assess the impact of TGFβ1 signaling on the progression of CD8 T cells toward dysfunction, we treated co-cultures with TGFβ1 or RepSox (also known as E-616452) (2-(3-(6-Methylpyridine-2-yl)-1H-pyrazol-4-yl)-1,5-naphthyridine) as shown in the formula: […]
RepSox is a potent selective inhibitor of the TGFβ type 1 receptor (ALK5)—for 11 days after effector differentiation was complete (day 6).
We also examined the impact of BMP-2/4 signaling on RepSox-treated P14 CD8 T cells. […] Taken together, our findings indicate that TGFβ1-signaling not only accelerates the development of T cell dysfunction, but also maintains silencing of lymphoid homing markers on CD8 T cells. Importantly, our findings support the feasibility of using this novel in-vitro model as a tractable tool that can guide our in-vivo work by providing first-line mechanistic studies.

Dysf. CD8+ T cells = experiment: reprogramming treatment of Dysf. (chronic TCR plus TGFβ1) human CD8+ T cells; format: cell-based
Protocol: On day 7, viable CD8+ T cells were FACS-purified using the Sony MA900 cell sorter. Purified CD8+ T cells were then continuously stimulated in plates coated with anti-CD3 only (5 ug/ml). Media was replenished every 2-3 days, and cells were incubated at 37 C and 5% CO2 throughout the duration of the experiment. Human TGFβ1 (5 ng/ml, Peprotech) was added to the media starting on day 7. Treatment with RepSox (25 μM) and SB4 (10 μM) (MedChemExpress LLC) or vehicle control (DMSO, ThermoFisher) were added to the media starting on day 14 or 21. Vitamin C (100 μM, MedChemExpress LLC) was added to the media starting on day 21. For the acute TCR stimulation condition, anti-CD3 was no longer added to the media starting on day 7. For recovery experiments in FIG. 16 and FIGS. 22 and 26, CD8+ T cells were rested from TCR stimulation and TGFβ1 starting on day 28 for 7-14 days in T cell media containing recombinant human IL-15 only (10 ng/ml).
(§1) On days 7, 14, 21, and 28 (and day 35 and 42 for recovery experiments), human CBMCs were stimulated with PMA/Ionomycin (Cell Stimulation Cocktail plus protein transport inhibitors, eBioscience) for 3 hours at 37° C., 5% CO2. Incubation was followed immediately by antibody intracellular staining for flow cytometry.
Human CBMCs from ex vivo stimulation experiments (acute or chronic TCR, and chronic TCR+TGFβ1) were labeled with 5(6)-Carboxyfluorescein diacetate N-succinimidyl ester (CFSE) (1 μM, Sigma) by staining in PBS for 7 minutes at room temperature, followed by quenching with 20% FBS. Proliferation was tracked on days 35 and 42 by assessing CFSE fluorescence via flow cytometry. Each peak of CFSE fluorescence signal represents one cell division cycle.

human CD8+ T cells [1] = experiment: RNA-sequencing of human CD8+ T cells; format: cell-based
Protocol: RNA was isolated using PicoPure™ RNA Isolation Kit (Applied Biosystems) from frozen cell pellets of human CD8+ T cells that were FACS-purified from days 0 (naïve), 7, and 28. Following the kit protocol. Partek Flow was used for RNA-seq analysis. In brief, pre-alignment QC/QA analysis was performed on the FASTQ files, followed by read alignment on human whole genome hg38 using STAR. The aligned reads were quantified to the hg38 RefSeq Transcripts 98 using the Quantify to annotation model on Partek and gene counts were filtered (exclude features where maximum <50.0). Filtered gene counts were normalized using median ratio for DESeq2 analysis to measure differential gene expression among different populations of CD8+ T cells. Differentially expressed genes (DEGs) were identified for genes showing fold change ≥2 and p-value 0.05.

human CD8+ T cells [2] = experiment: whole-genome bisulfite sequencing of human CD8+ T cells; format: cell-based
Protocol: Human CD8+ T cells were sorted on days 0 (naïve), 7, and 28, and genomic DNA was extracted and bisulfite-treated to convert unmethylated cytosine to uracil residues using the EZ DNA Methylation-Direct Kit (Zymo). DNA libraries were prepared using Swift Accel-NGS® D Methyl-Seq DNA Library Kit according to the manufacturer's protocol. The libraries were purified by the AMPureXP Beads followed by QC using Qubit method, and the purified DNA was captured on an Illumina flow cell for cluster generation. Libraries were sequenced on the NovaSeq-S2 platform following the manufacturer's protocols. Sequencing data were aligned to the Hg38 genome using BSMAP. Adapter were trimmed from FASTQ sequences (trimglore) and mapped to the hg38 genome using the BSMAP v. 2.74 software. CpGs were extracted by the methratio.py in the BSMAP package. Differential analysis of CpG methylation among the datasets was determined with a Bayesian hierarchical model to detect regional methylation differences with at least three CpG site. Differentially methylated regions (DMRs) were identified using Bioconductor package DSS and custom R scripts with a threshold of 30% change in methylation ratio and P-value <0.01 with at least 10 reads per CpG site as a cutoff.

B16-F10-LCMV-GP tumor = format: in vivo, C57BL/6 mice; conditions: therapy initiated after tumor development, i.p. every 2 days, through day 17
[3] = system: LCMV-specific CD8+ T cells; format: in vivo, C57BL/6 mice; conditions: treatment followed by anti-PD-L1
human CD8+ T cells [4] = experiment: BMP4 agonist treatment of human CD8+ T cells under chronic strong TCR stimulation; format: cell-based
Text: To determine whether activating the SMAD1/5-dependent pathway attenuates a progression of chronically stimulated T cells to dysfunction, we augmented SMAD1/5-signaling using SB4 (2-[[(4-Bromophenyl)methyl]thio]benzoxazole), as shown in the formula: […]
SB4 is a selective small molecule BMP4 agonist (BMP4a) that stabilizes SMAD1/5 phosphorylation—in human CD8+ T cells under chronic strong TCR stimulation (FIG. 15a). […] CD39, CD103, and CD101 (FIG. 15e-i). Importantly. […] Taken together, these findings reveal a novel role for BMP4 signals in reversing exhaustion features and enhancing the survival of chronically stimulated CD8+ T cells.
For “Weak TCR” stimulation, 30 ng/ml of purified monoclonal anti-human CD3 (clone: OKT3; BioLegend) was continuously added onto the seeded CBMCs to provide TCR stimulation plus natural costimulation via CD80/CD86 on Fc-expressing CBMCs that survive in the first few days. For “Strong TCR” stimulation setting, flat-bottom plates were coated with purified monoclonal anti-human CD3 (5 ug/ml) and anti-human CD28 (1 ug/ml) (clone: CD28.2; BioLegend) at 4° C. overnight, then CMBCs were isolated and seeded in complete T cell medium as described above on day 0. On day 7, viable CD8+ T cells were FACS-purified using the Sony MA900 cell sorter. Purified CD8+ T cells were then continuously stimulated in plates coated with anti-CD3 only (5 ug/ml). Media was replenished every 2-3 days, and cells were incubated at 37 C and 5% CO2 throughout the duration of the experiment. Human TGFβ1 (5 ng/ml, Peprotech) was added to the media starting on day 7. […] Vitamin C (100 μM, MedChemExpress LLC) was added to the media starting on day 21. For the acute TCR stimulation condition, anti-CD3 was no longer added to the media starting on day 7. For recovery experiments in FIG. 16 and FIGS. 22 and 26, CD8+ T cells were rested from TCR stimulation and TGFβ1 starting on day 28 for 7-14 days in T cell media containing recombinant human IL-15 only (10 ng/ml).
as §1

[5] = monotherapy, in the absence of TGFβ R1 blocker

Cc1cccc(-c2n[nH]cc2-c2ccc3ncccc3n2)n1 [RepSox, 2-(3-(6-Methylpyridine-2-yl)-1H-pyrazol-4-yl)-1,5-naphthyridine]
CD62L (L-selectin) expression (P14 CD8 T cells; P14 CD8 T cells): restored | levels of PD-1 (P14 CD8 T cells; P14 CD8 T cells): maintained high levels | tumor killing activity (P14 CD8 T cells; persistently stimulated P14 cells, treatment from day 6): preserved | effector function (expression of IFNγ, T-bet and Gzmb) (P14 CD8 T cells; relative to Day 6-effector CD8 T cells): boosted the effector function | effector molecules (IFNγ, TNFα, CD107a, T-bet) (Dysf. CD8+ T cells; RepSox alone, day 28): restored | surface markers associated with terminal dysfunction (CD101, PD-1, LAG3) (Dysf. CD8+ T cells; RepSox alone, day 28): downregulated | effector cytokine production (Dysf. CD8+ T cells; sorted most dysfunctional subset (CD107a low CD11a low), RepSox 2 weeks): significantly recovered | expression of effector function-related and memory-related genes (human CD8+ T cells [1]; TGFBR1 blockade alone, Dysf. CD8+ T cells, day 28): restored substantial expression levels | ACVR1 and ACVR2A expression (human CD8+ T cells [1]; normalized RNA levels, chronic stimulation): increased expression | DNA methylation patterns in Dysf. CD8+ T cells (human CD8+ T cells [2]; RepSox alone, day 28): induced distinct methylation patterns | tumor control (B16-F10-LCMV-GP tumor): modest tumor control | dysfunctional CD8+ T cell responses during anti-PD-L1 treatment [3]: did not improve

Brc1ccc(CSc2nc3ccccc3o2)cc1 [SB4, 2-[[(4-Bromophenyl)methyl]thio]benzoxazole]
expression of exhaustion-associated molecules (PD-1, LAG3, CD39, CD103, CD101) (human CD8+ T cells [4]; day 21): reducing the expression | numbers of persistently stimulated CD8+ T cells (human CD8+ T cells [4]; day 21): rescued significantly higher numbers | proliferation activity (Ki67) (human CD8+ T cells [4]; day 21): without increasing | polyfunctionality (human CD8+ T cells [4]; day 21, treatment day 7-21, after PMA/Ionomycin): significantly increased | expression levels of terminal dysfunction molecules (Dysf. CD8+ T cells; in RepSox-treated Dysf. CD8+ T cells): further reducing | effector function of Dysf. CD8+ T cells (Dysf. CD8+ T cells; [5]): not sufficient to restore | expression levels of dysfunction-related molecules (PD-1, LAG3, CD101, CD103) (Dysf. CD8+ T cells; [5]): significantly reduced | effector cytokine production (Dysf. CD8+ T cells; sorted most dysfunctional subset, added to RepSox): further enhanced | expression of genes regulating T cell co-stimulation, chemotaxis and stemness (CD28, FOSB, FCGR3A, CXCL8, POU2F2) (human CD8+ T cells [1]; Reprog.II versus Reprog.I): re-activated expression | DNA methylation patterns in Dysf. CD8+ T cells (human CD8+ T cells [2]; combined with RepSox): more pronounced | tumor control (B16-F10-LCMV-GP tumor): modest tumor control | dysfunctional CD8+ T cell responses during anti-PD-L1 treatment [3]: did not improve
